Experiment: Exposure of crystalline form to about 100% room humidity, crystal form monitored by XRD
Assay type: physicochemical
Conditions: after exposure to about 100% RH for about 7 days at about room temperature, Form I prepared from ethyl acetate (about 80 mg)
From the text: A round aluminum sample holder with zero background was used.

For `CN(C)c1cc(NC(=O)CNC(C)(C)C)c(O)c2c1C[C@H]1C[C@H]3[C@H](N(C)C)C(O)=C(C(N)=O)C(=O)[C@@]3(O)C(O)=C1C2=O` [Form I, (4S,4aS,5aR,12aS)-9-(2-(tert-butylamino)acetamido)-4,7-bis(dimethylamino)-1,4,4a,5,5a,6,11,12a-octahydro-3,10,12,12a-tetrahydroxy-1,11-dioxo-2-naphthacenecarboxamide], the Crystal form was “Amorphous”.

Reference: patent publication US8207361B2, “Tigecycline crystalline forms and processes for preparation thereof” (Teva Pharmaceutical Industries Ltd., priority 2006, dated 2012)
